Assay results: patent US20230085307A1, “PYRIDAZINONE COMPOUND AND HERBICIDE” (NISSAN CHEMICAL CORPORATION, priority 2019, published 2023)

Tests used:
late watergrass = assay: Test Example 1: herbicidal activity, application before weed generation under submerged conditions (Table 16, symbol A); type: in vivo, late watergrass (Echinochloa oryzicola)
Procedure, shortened: (§1)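 Emulsion formulation, water-diluted to set dose, was put onto the flooded surface (4 cm depth, alluvial soil) the same day weeds were sown and 2.5-leaf rice transplanted. After 3 weeks at 25-30 °C under glass, each species was rated 0 (≤5% kill) to 5 (≥90% kill).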

Japanese bulrush = assay: Test Example 1: herbicidal activity, application before weed generation under submerged conditions (Table 16, symbol B); type: in vivo, Japanese bulrush (Schoenoplectus juncoides)
Procedure, shortened: as §1

oval-leafed pondweed = assay: Test Example 1: herbicidal activity, application before weed generation under submerged conditions (Table 16, symbol C); type: in vivo, oval-leafed pondweed (Monochoria vaginalis)
Procedure, shortened: as §1

barnyard grass [1] = assay: Test Example 3: herbicidal effect by foliage application, Wagner pot (Table 18, symbol H); type: in vivo, barnyard grass (Echinochloa crus-galli); settings: 320 g/ha
Procedure, shortened: (§2)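 Plants were sown in alluvial soil held under 0.1–0.5 cm standing water and grown 14 days in a greenhouse at 25–30 °C. An emulsifiable formulation, water-diluted to the set dose, was then sprayed onto the foliage, and effects were scored three weeks later using previously defined criteria.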

Chinese sprangletop = assay: Test Example 3: herbicidal effect by foliage application, Wagner pot (Table 18, symbol D); type: in vivo, chinese sprangletop (Leptochloa chinensis); settings: 320 g/ha
Procedure, shortened: as §2

rice flat sedge = assay: Test Example 3: herbicidal effect by foliage application, Wagner pot (Table 18, symbol E); type: in vivo, rice flat sedge (Cyperus iria); settings: 320 g/ha
Procedure, shortened: as §2

southern crabgrass [2] = assay: Test Example 4: herbicidal effect by soil treatment (Table 19, symbol F); type: in vivo, southern crabgrass (Digitaria ciliaris)
Procedure, shortened: (§3)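 In this soil treatment, the formulated compound reached the seeds only through the soil: seeds were buried about 1.5 cm deep in sterilized diluvial soil, then the diluted emulsion was sprayed over the surface. After three weeks at 25° C. to 30° C. in a greenhouse, effects were graded on criteria from an earlier test.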

green foxtail [3] = assay: Test Example 4: herbicidal effect by soil treatment (Table 19, symbol G); type: in vivo, green foxtail (Setaria viridis)
Procedure, shortened: as §3

barnyard grass [4] = assay: Test Example 4: herbicidal effect by soil treatment (Table 19, symbol H); type: in vivo, barnyard grass (Echinochloa crus-galli)
Procedure, shortened: as §3

wild oat [5] = assay: Test Example 4: herbicidal effect by soil treatment (Table 19, symbol I); type: in vivo, wild oat (Avena fatua)
Procedure, shortened: as §3

blackgrass [6] = assay: Test Example 4: herbicidal effect by soil treatment (Table 19, symbol J); type: in vivo, blackgrass (Alopecurus myosuroides)
Procedure, shortened: as §3

Italian ryegrass [7] = assay: Test Example 4: herbicidal effect by soil treatment (Table 19, symbol K); type: in vivo, Italian ryegrass (Lolium multiflorum)
Procedure, shortened: as §3

windgrass [8] = assay: Test Example 4: herbicidal effect by soil treatment (Table 19, symbol L); type: in vivo, windgrass (Apera spica-venti)
Procedure, shortened: as §3

velvetleaf [9] = assay: Test Example 4: herbicidal effect by soil treatment (Table 19, symbol M); type: in vivo, velvetleaf (Abutilon theophrasti)
Procedure, shortened: as §3

redroot pigweed [10] = assay: Test Example 4: herbicidal effect by soil treatment (Table 19, symbol N); type: in vivo, redroot pigweed (Amaranthus retroflexus)
Procedure, shortened: as §3

lambsquarters [11] = assay: Test Example 4: herbicidal effect by soil treatment (Table 19, symbol O); type: in vivo, lambsquarters (Chenopodium album)
Procedure, shortened: as §3

chickweed [12] = assay: Test Example 4: herbicidal effect by soil treatment (Table 19, symbol P); type: in vivo, common chickweed (Stellaria media)
Procedure, shortened: as §3

persian speedwell [13] = assay: Test Example 4: herbicidal effect by soil treatment (Table 19, symbol R); type: in vivo, Persian speedwell (Veronica persica)
Procedure, shortened: as §3

southern crabgrass [14] = assay: Test Example 5: herbicidal effect by foliage application, plastic box (Table 20, symbol F); type: in vivo, southern crabgrass (Digitaria ciliaris); settings: evaluated three weeks after application
Procedure, shortened: (§4)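 Plants were sown into sterilized diluvial soil under about 1.5 cm cover and kept in a greenhouse at 25° C. to 30° C. Fourteen days on, foliage received an even spray of the diluted emulsion. Herbicidal or crop effect was judged three weeks afterwards.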

green foxtail [15] = assay: Test Example 5: herbicidal effect by foliage application, plastic box (Table 20, symbol G); type: in vivo, green foxtail (Setaria viridis); settings: evaluated three weeks after application
Procedure, shortened: as §4

barnyard grass [16] = assay: Test Example 5: herbicidal effect by foliage application, plastic box (Table 20, symbol H); type: in vivo, barnyard grass (Echinochloa crus-galli); settings: evaluated three weeks after application
Procedure, shortened: as §4

wild oat [17] = assay: Test Example 5: herbicidal effect by foliage application, plastic box (Table 20, symbol I); type: in vivo, wild oat (Avena fatua); settings: evaluated three weeks after application
Procedure, shortened: as §4

blackgrass [18] = assay: Test Example 5: herbicidal effect by foliage application, plastic box (Table 20, symbol J); type: in vivo, blackgrass (Alopecurus myosuroides); settings: evaluated three weeks after application
Procedure, shortened: as §4

Italian ryegrass [19] = assay: Test Example 5: herbicidal effect by foliage application, plastic box (Table 20, symbol K); type: in vivo, Italian ryegrass (Lolium multiflorum); settings: evaluated three weeks after application
Procedure, shortened: as §4

windgrass [20] = assay: Test Example 5: herbicidal effect by foliage application, plastic box (Table 20, symbol L); type: in vivo, windgrass (Apera spica-venti); settings: evaluated three weeks after application
Procedure, shortened: as §4

velvetleaf [21] = assay: Test Example 5: herbicidal effect by foliage application, plastic box (Table 20, symbol M); type: in vivo, velvetleaf (Abutilon theophrasti); settings: evaluated three weeks after application
Procedure, shortened: as §4

redroot pigweed [22] = assay: Test Example 5: herbicidal effect by foliage application, plastic box (Table 20, symbol N); type: in vivo, redroot pigweed (Amaranthus retroflexus); settings: evaluated three weeks after application
Procedure, shortened: as §4

lambsquarters [23] = assay: Test Example 5: herbicidal effect by foliage application, plastic box (Table 20, symbol O); type: in vivo, lambsquarters (Chenopodium album); settings: evaluated three weeks after application
Procedure, shortened: as §4

chickweed [24] = assay: Test Example 5: herbicidal effect by foliage application, plastic box (Table 20, symbol P); type: in vivo, common chickweed (Stellaria media); settings: evaluated three weeks after application
Procedure, shortened: as §4

persian speedwell [25] = assay: Test Example 5: herbicidal effect by foliage application, plastic box (Table 20, symbol R); type: in vivo, Persian speedwell (Veronica persica); settings: evaluated three weeks after application
Procedure, shortened: as §4

[26] = amount of applied herbicide 320 g/ha
[27] = amount of applied herbicide 320 g/ha, foliage application after 14-day growth

## COc1ccccc1-c1sc2c(C)cccc2c1-c1c(O)c(C)nn(C)c1=O [4-106]
Late watergrass; [26]
  Herbicidal effect, A: late watergrass: 2 (Herbicidal rate of 20% or more and less than 40%)
Japanese bulrush; [26]
  Herbicidal effect, B: Japanese bulrush: 0 (Herbicidal rate of 5% or less (almost no effect))
oval-leafed pondweed; [26]
  Herbicidal effect, C: oval-leafed pondweed: 0 (Herbicidal rate of 5% or less (almost no effect))
Barnyard grass [1]
  herbicidal effect on barnyard grass (H): 4 (Herbicidal rate of 70% or more and less than 90%)
Chinese sprangletop
  herbicidal effect on Chinese sprangletop (D): 0 (Herbicidal rate of 5% or less (almost no effect))
Rice flat sedge
  herbicidal effect on rice flat sedge (E): 5 (Herbicidal rate of 90% or more (almost completely withered))
Southern crabgrass [2]; [26]
  Herbicidal effect by soil treatment, F: southern crabgrass: 3 (Herbicidal rate of 40% or more and less than 70%)
Green foxtail [3]; [26]
  Herbicidal effect by soil treatment, G: green foxtail: 1 (Herbicidal rate of 5% or more and less than 20%)
Barnyard grass [4]; [26]
  Herbicidal effect by soil treatment, H: barnyard grass: 0 (Herbicidal rate of 5% or less (almost no effect))
Wild oat [5]; [26]
  Herbicidal effect by soil treatment, I: wild oat: 0 (Herbicidal rate of 5% or less (almost no effect))
Blackgrass [6]; [26]
  Herbicidal effect by soil treatment, J: blackgrass: 0 (Herbicidal rate of 5% or less (almost no effect))
Italian ryegrass [7]; [26]
  Herbicidal effect by soil treatment, K: Italian ryegrass: 0 (Herbicidal rate of 5% or less (almost no effect))
Windgrass [8]; [26]
  Herbicidal effect by soil treatment, L: windgrass: 3 (Herbicidal rate of 40% or more and less than 70%)
Velvetleaf [9]; [26]
  Herbicidal effect by soil treatment, M: velvetleaf: 0 (Herbicidal rate of 5% or less (almost no effect))
Redroot pigweed [10]; [26]
  Herbicidal effect by soil treatment, N: redroot pigweed: 4 (Herbicidal rate of 70% or more and less than 90%)
Lambsquarters [11]; [26]
  Herbicidal effect by soil treatment, O: lambsquarters: 1 (Herbicidal rate of 5% or more and less than 20%)
Chickweed [12]; [26]
  Herbicidal effect by soil treatment, P: chickweed: 1 (Herbicidal rate of 5% or more and less than 20%)
Persian speedwell [13]; [26]
  Herbicidal effect by soil treatment, R: persian speedwell: 1 (Herbicidal rate of 5% or more and less than 20%)
Southern crabgrass [14]; [27]
  Herbicidal effect by foliage application, F: southern crabgrass: 1 (Herbicidal rate of 5% or more and less than 20%)
Green foxtail [15]; [27]
  Herbicidal effect by foliage application, G: green foxtail: 0 (Herbicidal rate of 5% or less (almost no effect))
Barnyard grass [16]; [27]
  Herbicidal effect by foliage application, H: barnyard grass: 1 (Herbicidal rate of 5% or more and less than 20%)
Wild oat [17]; [27]
  Herbicidal effect by foliage application, I: wild oat: 2 (Herbicidal rate of 20% or more and less than 40%)
Blackgrass [18]; [27]
  Herbicidal effect by foliage application, J: blackgrass: 4 (Herbicidal rate of 70% or more and less than 90%)
Italian ryegrass [19]; [27]
  Herbicidal effect by foliage application, K: Italian ryegrass: 4 (Herbicidal rate of 70% or more and less than 90%)
Windgrass [20]; [27]
  Herbicidal effect by foliage application, L: windgrass: 5 (Herbicidal rate of 90% or more (almost completely withered))
Velvetleaf [21]; [27]
  Herbicidal effect by foliage application, M: velvetleaf: 3 (Herbicidal rate of 40% or more and less than 70%)
Redroot pigweed [22]; [27]
  Herbicidal effect by foliage application, N: redroot pigweed: 4 (Herbicidal rate of 70% or more and less than 90%)
Lambsquarters [23]; [27]
  Herbicidal effect by foliage application, O: lambsquarters: 3 (Herbicidal rate of 40% or more and less than 70%)
Chickweed [24]; [27]
  Herbicidal effect by foliage application, P: chickweed: 5 (Herbicidal rate of 90% or more (almost completely withered))
Persian speedwell [25]; [27]
  Herbicidal effect by foliage application, R: persian speedwell: 5 (Herbicidal rate of 90% or more (almost completely withered))

## CSCCOc1ccc(-c2sc3ccc(F)cc3c2-c2c(O)c(C)nn(C)c2=O)cc1 [2-058]
Late watergrass; 320 g/ha applied herbicide
  Herbicidal effect on A: late watergrass (grade 0-5): 0 (Herbicidal rate of 5% or less (almost no effect))
Japanese bulrush; 320 g/ha applied herbicide
  Herbicidal effect on B: Japanese bulrush (grade 0-5): 2 (Herbicidal rate of 20% or more and less than 40%)
oval-leafed pondweed; 320 g/ha applied herbicide
  Herbicidal effect on C: oval-leafed pondweed (grade 0-5): 0 (Herbicidal rate of 5% or less (almost no effect))
Barnyard grass [1]
  herbicidal effect on H (barnyard grass), rating 0-5: 5 (Herbicidal rate of 90% or more (almost completely withered))
Chinese sprangletop
  herbicidal effect on D (Chinese sprangletop), rating 0-5: 5 (Herbicidal rate of 90% or more (almost completely withered))
Rice flat sedge
  herbicidal effect on E (rice flat sedge), rating 0-5: 5 (Herbicidal rate of 90% or more (almost completely withered))
Southern crabgrass [2]; 320 g/ha
  herbicidal effect rating, F: southern crabgrass: 5 (Herbicidal rate of 90% or more (almost completely withered))
Green foxtail [3]; 320 g/ha
  herbicidal effect rating, G: green foxtail: 4 (Herbicidal rate of 70% or more and less than 90%)
Barnyard grass [4]; 320 g/ha
  herbicidal effect rating, H: barnyard grass: 1 (Herbicidal rate of 5% or more and less than 20%)
Wild oat [5]; 320 g/ha
  herbicidal effect rating, I: wild oat: 0 (Herbicidal rate of 5% or less (almost no effect))
Blackgrass [6]; 320 g/ha
  herbicidal effect rating, J: blackgrass: 5 (Herbicidal rate of 90% or more (almost completely withered))
Italian ryegrass [7]; 320 g/ha
  herbicidal effect rating, K: Italian ryegrass: 4 (Herbicidal rate of 70% or more and less than 90%)
Windgrass [8]; 320 g/ha
  herbicidal effect rating, L: windgrass: 4 (Herbicidal rate of 70% or more and less than 90%)
Velvetleaf [9]; 320 g/ha
  herbicidal effect rating, M: velvetleaf: 3 (Herbicidal rate of 40% or more and less than 70%)
Redroot pigweed [10]; 320 g/ha
  herbicidal effect rating, N: redroot pigweed: 5 (Herbicidal rate of 90% or more (almost completely withered))
Lambsquarters [11]; 320 g/ha
  herbicidal effect rating, O: lambsquarters: 5 (Herbicidal rate of 90% or more (almost completely withered))
Chickweed [12]; 320 g/ha
  herbicidal effect rating, P: chickweed: 3 (Herbicidal rate of 40% or more and less than 70%)
Persian speedwell [13]; 320 g/ha
  herbicidal effect rating, R: persian speedwell: 4 (Herbicidal rate of 70% or more and less than 90%)
Southern crabgrass [14]; foliage application, 320 g/ha
  herbicidal effect on F: southern crabgrass: 5 (Herbicidal rate of 90% or more (almost completely withered))
Green foxtail [15]; foliage application, 320 g/ha
  herbicidal effect on G: green foxtail: 5 (Herbicidal rate of 90% or more (almost completely withered))
Barnyard grass [16]; foliage application, 320 g/ha
  herbicidal effect on H: barnyard grass: 5 (Herbicidal rate of 90% or more (almost completely withered))
Wild oat [17]; foliage application, 320 g/ha
  herbicidal effect on I: wild oat: 5 (Herbicidal rate of 90% or more (almost completely withered))
Blackgrass [18]; foliage application, 320 g/ha
  herbicidal effect on J: blackgrass: 5 (Herbicidal rate of 90% or more (almost completely withered))
Italian ryegrass [19]; foliage application, 320 g/ha
  herbicidal effect on K: Italian ryegrass: 5 (Herbicidal rate of 90% or more (almost completely withered))
Windgrass [20]; foliage application, 320 g/ha
  herbicidal effect on L: windgrass: 5 (Herbicidal rate of 90% or more (almost completely withered))
Velvetleaf [21]; foliage application, 320 g/ha
  herbicidal effect on M: velvetleaf: 5 (Herbicidal rate of 90% or more (almost completely withered))
Redroot pigweed [22]; foliage application, 320 g/ha
  herbicidal effect on N: redroot pigweed: 5 (Herbicidal rate of 90% or more (almost completely withered))
Lambsquarters [23]; foliage application, 320 g/ha
  herbicidal effect on O: lambsquarters: 5 (Herbicidal rate of 90% or more (almost completely withered))
Chickweed [24]; foliage application, 320 g/ha
  herbicidal effect on P: chickweed: 5 (Herbicidal rate of 90% or more (almost completely withered))
Persian speedwell [25]; foliage application, 320 g/ha
  herbicidal effect on R: persian speedwell: 5 (Herbicidal rate of 90% or more (almost completely withered))
